According to US9546157B2, “Asymmetric piperidinyl-substituted ureas as medicines” (Helsinn Healthcare SA, priority 2014, dated 2017):

Assays:
[1] = target: T1, GHSR1a (Homo sapiens, UniProt Q92847); experiment: Calcium FLIPR assay, GHSR-1a antagonism (reduction of ghrelin response); type: cell-based; settings: HEK293/GHSR1a cells, ghrelin 10 nM
T1 construct: expressed in transfected cells; host or cells: HEK293
How it was run: (§1)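 Uses HEK293 cells expressing GHSR1a, loaded with calcium dye, with FLIPR fluorescence followed for 2 min after addition at t=20 s. Agonism: compound alone. Antagonism: compound with 10 nM ghrelin, potency from reduction of ghrelin response; EC50/IC50 from dose-response curves.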

[2] = target: T1, GHSR1a; experiment: Calcium FLIPR assay, GHSR-1a agonism; type: cell-based; parameters: Emax: unit not given here; settings: HEK293/GHSR1a cells
How it was run: as §1

[3] = Metabolic Stability (H = Human); type: in vitro ADME
[4] = Metabolic Stability (M = Mouse); type: in vitro ADME

T1 sequence (Q92847 whole entry): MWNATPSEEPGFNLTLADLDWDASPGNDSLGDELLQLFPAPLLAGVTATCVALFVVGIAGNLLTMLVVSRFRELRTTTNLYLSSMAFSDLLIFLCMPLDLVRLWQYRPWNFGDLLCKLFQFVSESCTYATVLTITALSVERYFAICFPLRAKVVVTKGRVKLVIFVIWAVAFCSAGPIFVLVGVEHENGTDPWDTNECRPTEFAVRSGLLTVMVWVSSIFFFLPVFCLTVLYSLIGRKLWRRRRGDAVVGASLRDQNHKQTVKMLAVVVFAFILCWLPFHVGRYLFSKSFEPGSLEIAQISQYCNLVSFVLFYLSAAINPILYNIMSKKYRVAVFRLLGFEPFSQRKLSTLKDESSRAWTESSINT

Compound	IC50 [1]	EC50 [2]	Metabolic Stability H [3]	Metabolic Stability M [4]	Emax [2]
CC(NC(=O)N(C)C1CCN(C)CC1)c1ccc(-c2cncc(CO)c2)c(Cl)c1Cl (stereo not drawn) [Compound H0636, 3-(1-(2,3-dichloro-4-(5-(hydroxymethyl)pyridin-3-yl)phenyl)ethyl)-1-methyl-1-(1-methylpiperidin-4-yl)urea]	90 nM	> 30000 nM	High	Medium	–
CC(NC(=O)N(C)C1CCN(C)CC1)c1ccc(-c2cncc(C(F)F)c2)c(Cl)c1Cl (stereo not drawn) [Compound H0637, 3-(1-(2,3-dichloro-4-(5-(difluoromethyl)pyridin-3-yl)phenyl)ethyl)-1-methyl-1-(1-methylpiperidin-4-yl)urea]	85 nM	> 30000 nM	Medium H Medium M	Medium H Medium M	–
CC(NC(=O)N(C)C1CCN(C)CC1)c1ccc(-c2cncc(C=O)c2)c(Cl)c1Cl (stereo not drawn) [Compound H0642, 3-(1-(2,3-dichloro-4-(5-formylpyridin-3-yl)phenyl)ethyl)-1-methyl-1-(1-methylpiperidin-4-yl)urea]	78 nM	> 30000 nM	Very low	Very Low	–
CN1CCC(N(C)C(=O)NC(C#N)c2ccc(-c3ccsc3)c(Cl)c2Cl)CC1 (stereo not drawn) [Compound H0644, 3-(cyano(2,3-dichloro-4-(thiophen-3-yl)phenyl)methyl)-1-methyl-1-(1-methylpiperidin-4-yl)urea]	6 nM	28 nM	Medium H Medium M	Medium H Medium M	2822
CC(NC(=O)N(C)C1CCN(C)CC1)c1ccc(-c2ccc(CO)s2)c(Cl)c1Cl (stereo not drawn) [Compound H0653, 3-(1-(2,3-dichloro-4-(5-(hydroxymethyl)thiophen-2-yl)phenyl)ethyl)-1-methyl-1-(1-methylpiperidin-4-yl)urea]	4 nM	9 nM	Medium H Medium M	Medium H Medium M	1815
CC(NC(=O)N(C)C1CCN(C)CC1)c1ccc(-c2ccc(C(F)F)s2)c(Cl)c1Cl (stereo not drawn) [Compound H0654, 3-(1-(2,3-dichloro-4-(5-(difluoromethyl)thiophen-2-yl)phenyl)ethyl)-1-methyl-1-(1-methylpiperidin-4-yl)urea]	6 nM	10 nM	High	Medium	2200
CC(O)c1ccc(-c2ccc(C(C)NC(=O)N(C)C3CCN(C)CC3)c(Cl)c2Cl)s1 (stereo not drawn) [Compound H0656, 3-(1-(2,3-dichloro-4-(5-(1-hydroxyethyl)thiophen-2-yl)phenyl)ethyl)-1-methyl-1-(1-methylpiperidin-4-yl)urea]	7 nM	15 nM	Medium H Medium M	Medium H Medium M	1350
Cc1ccc(-c2ccc(C(C)NC(=O)N(C)C3CCN(C)CC3)c(Cl)c2Cl)o1 (stereo not drawn) [Compound H0665, 3-(1-(2,3-dichloro-4-(5-methylfuran-2-yl)phenyl)ethyl)-1-methyl-1-(1-methylpiperidin-4-yl)urea]	4 nM	8 nM	High	Medium	–
CC(=O)C#Cc1ccc(C(C)NC(=O)N(C)C2CCN(C)CC2)c(Cl)c1Cl (stereo not drawn) [Compound H0701, 3-(1-(2,3-dichloro-4-(3-oxobut-1-yn-1-yl)phenyl)ethyl)-1-methyl-1-(1-methylpiperidin-4-yl)urea]	20 nM	> 30000 nM	Low H Low M	Low H Low M	–
CC(NC(=O)N(C)C1CCN(C)CC1)c1ccc(-c2cncc(C3=CCCC3)c2)c(Cl)c1Cl (stereo not drawn) [Compound H0705, 3-(1-(2,3-dichloro-4-(5-(cyclopent-1-en-1-yl)pyridin-3-yl)phenyl)ethyl)-1-methyl-1-(1-methylpiperidin-4-yl)urea]	53 nM	> 30000 nM	High H High M	High H High M	–
CC(NC(=O)N(C)C1CCN(C)CC1)c1ccc(-c2cncc(-c3cncs3)c2)c(Cl)c1Cl (stereo not drawn) [Compound H0716, 3-(1-(2,3-dichloro-4-(5-(thiazol-5-yl)pyridin-3-yl)phenyl)ethyl)-1-methyl-1-(1-methylpiperidin-4-yl)urea]	15 nM	> 30000 nM	Low	Medium	–
CN1CCC(N(C)C(=O)NC(CC2CC2)c2ccc(-c3cccnc3)c(Cl)c2Cl)CC1 (stereo not drawn) [Compound H0720, 3-(2-cyclopropyl-1-(2,3-dichloro-4-(pyridin-3-yl)phenyl)ethyl)-1-methyl-1-(1-methylpiperidin-4-yl)urea]	8 nM	> 30000 nM	Medium	High	–
CN1CCC(N(C)C(=O)NC(CC2CC2)c2ccc(-c3cncc(N)c3)c(Cl)c2Cl)CC1 (stereo not drawn) [Compound H0721, 3-(1-(4-(5-aminopyridin-3-yl)-2,3-dichlorophenyl)-2-cyclopropylethyl)-1-methyl-1-(1-methylpiperidin-4-yl)urea]	20 nM	> 30000 nM	Medium	High	–
CN1CCC(N(C)C(=O)NC(CC2CC2)c2ccc(-c3ccc(C(N)=O)s3)c(Cl)c2Cl)CC1 (stereo not drawn) [Compound H0728, 5-(2,3-dichloro-4-(2-cyclopropyl-1-(3-methyl-3-(1-methylpiperidin-4-yl)ureido)ethyl)phenyl)thiophene-2-carboxamide]	5 nM	> 30000 nM	Medium H Medium M	Medium H Medium M	–
CCC(NC(=O)N(C)C1CCN(C)C1)c1ccc(-c2cnccn2)c(Cl)c1Cl (stereo not drawn) [Compound H0857, 3-(1-(2,3-dichloro-4-(pyrazin-2-yl)phenyl)propyl)-1-methyl-1-(1-methylpyrrolidin-3-yl)urea]	10 nM	> 30000 nM	Medium	Low	–
CCC(NC(=O)N(C)[C@@H]1CCN(C)CC1(C)C)c1ccc(-c2cnccn2)c(Cl)c1Cl (stereo partly drawn) [Compound H0858, 3-(1-(2,3-dichloro-4-(pyrazin-2-yl)phenyl)propyl)-1-methyl-1-((R)-1,3,3-trimethylpiperidin-4-yl)urea]	8 nM	> 30000 nM	Medium H Medium M	Medium H Medium M	–
CCC(NC(=O)N(C)C1CCN(C)CC1)c1ccc(-c2cncc(F)n2)c(Cl)c1Cl (stereo not drawn) [Compound H0863, 3-(1-(2,3-dichloro-4-(6-fluoropyrazin-2-yl)phenyl)propyl)-1-methyl-1-(1-methylpiperidin-4-yl)urea]	3 nM	> 30000 nM	Medium	High	–
C[C@H](NC(=O)N(C)C1CCN(C)C1)c1ccc(-c2cncc(F)n2)c(Cl)c1Cl (stereo partly drawn) [Compound H0872, 3-((S)-1-(2,3-dichloro-4-(6-fluoropyrazin-2-yl)phenyl)ethyl)-1-methyl-1-(1-methylpyrrolidin-3-yl)urea]	6 nM	> 30000 nM	High	medium	–
CCN(C(=O)N[C@@H](C)c1ccc(-c2cnccn2)c(Cl)c1Cl)C1CCN(C)CC1 [Compound H0889, (S)-3-(1-(2,3-dichloro-4-(pyrazin-2-yl)phenyl)ethyl)-1-ethyl-1-(1-methylpiperidin-4-yl)urea]	6 nM	> 30000 nM	High H High M	High H High M	–
C[C@H](NC(=O)N(C)[C@@H]1CCN(C)CC1(C)C)c1ccc(-c2cnccn2)c(Cl)c1Cl [Compound H0890, 3-((S)-1-(2,3-dichloro-4-(pyrazin-2-yl)phenyl)ethyl)-1-methyl-1-((R)-1,3,3-trimethylpiperidin-4-yl)urea]	1.6 nM	> 30000 nM	High H High M	High H High M	–
CN1CCC(N(C)C(=O)N[C@@H](c2ccc(-c3cnccn3)c(Cl)c2Cl)C(F)(F)F)CC1 [Compound H0899, (S)-3-(1-(2,3-dichloro-4-(pyrazin-2-yl)phenyl)-2,2,2-trifluoroethyl)-1-methyl-1-(1-methylpiperidin-4-yl)urea]	1600 nM	> 30000 nM	Medium	High	–
CN1CCC(N(C)C(=O)NC(c2ccc(-c3cncc(F)n3)c(Cl)c2Cl)C(F)(F)F)CC1 (stereo not drawn) [Compound H0908, 3-(1-(2,3-dichloro-4-(6-fluoropyrazin-2-yl)phenyl)-2,2,2-trifluoroethyl)-1-methyl-1-(1-methylpiperidin-4-yl)urea]	8 nM	> 30000 nM	Medium	High	–
CCN(C(=O)NC(c1ccc(-c2cnccn2)c(Cl)c1Cl)C(F)(F)F)C1CCN(C)CC1 (stereo not drawn) [Compound H0909, 3-(1-(2,3-dichloro-4-(pyrazin-2-yl)phenyl)-2,2,2-trifluoroethyl)-1-ethyl-1-(1-methylpiperidin-4-yl)urea]	12 nM	> 30000 nM	Medium	High	–
